Laboratory results reported in US11866431B2, “Bicyclic compounds” (Vivace Therapeutics, Inc., priority 2018, dated 2024).

Tested on: 8XTBD luciferase reporter (YAP reporter) in HEK293T cells
Assay: YAP Reporter Assay
Type: cell-based
Details: Homo sapiens, HEK-293T; HEK293T cells stably transfected with 8XTBD luciferase reporter and pRLTK; 24-hr incubation; top concentration 3 μM; read-out: Firefly Luciferase IC50
Method in brief: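 Dual-luciferase read-out after 24 h compound exposure at 37° C, 5% CO2; IC50 and maximum inhibition given separately for 8XTBD-firefly and TK-renilla signals. Stable HEK293T reporter cells, 3×10^3/well, received 10-point 1:3 series starting 3 μM final, in quadruplicate.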

Row | SMILES | IC50 [nM]
1 | C[C@H](CO)NC(=O)c1ccc2c(-c3ccc(C(F)(F)F)cc3)cccc2n1 [Compound 247, (R)—N-(1-Hydroxypropan-2-yl)-5-(4-(trifluoromethyl)phenyl)quinoline-2-carboxamide] | 100 to 1000
2 | O=C(NCc1ccncn1)c1ccc2c(-c3ccc(C(F)(F)F)cc3)cccc2c1 [Compound 185, N-(pyrimidin-4-ylmethyl)-5-(4-(trifluoromethyl)phenyl)-2-naphthamide] | < 100
3 | O=C(NC(CF)CF)c1ccc2c(-c3ccc(C(F)(F)F)cc3)cccc2c1 [Compound 62, N-(1,3-difluoropropan-2-yl)-5-(4-(trifluoromethyl)phenyl)-2-naphthamide] | 100 to 1000
